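Protocol summary: plate cells (96-well), add compound at 5 concentrations, incubate 48 h, interpolate endpoints linearly. GI50 = concentration required for 50% inhibition of growth.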 Calls of active or inactive are those of the source. Cut-off read from the data, not from the text of the source: active = GI50 up to about 1.1 µM and inactive = higher.
Columns and labels:
Assay in all cases: growth of human tumour cells (NCI), 48 h
786-0 = system: 786-0
A498 = system: A498
A549 = system: A549
ACHN = system: ACHN
CAKI-1 = system: CAKI-1
CCRF-CEM = system: CCRF-CEM
COLO 205 = system: COLO 205
DLD-1 = system: DLD-1
DMS-114 = system: DMS-114
DMS-273 = system: DMS-273
EKVX = system: EKVX
HCC 2998 = system: HCC 2998
HCT-116 = system: HCT-116
HCT-15 = system: HCT-15
HL-60 = system: HL-60
HOP-18 = system: HOP-18
HOP-62 = system: HOP-62
HOP-92 = system: HOP-92
HT-29 = system: HT-29
IGROV-1 = system: IGROV-1
K562 = system: K562
KM-20L2 = system: KM-20L2
KM12 = system: KM12
LOX IMVI = system: LOX IMVI
LXFL 529 = system: LXFL 529
M14 = system: M14
M19-MEL = system: M19-MEL
MOLT-4 = system: MOLT-4
Malme-3M = system: Malme-3M
NCI-H226 = system: NCI-H226
NCI-H23 = system: NCI-H23
NCI-H460 = system: NCI-H460
NCI-H522 = system: NCI-H522
OVCAR-3 = system: OVCAR-3
OVCAR-4 = system: OVCAR-4
OVCAR-5 = system: OVCAR-5
OVCAR-8 = system: OVCAR-8
RXF 393 = system: RXF 393
RXF 631 = system: RXF 631
SF-268 = system: SF-268
SF-295 = system: SF-295
SF-539 = system: SF-539
SK-MEL-28 = system: SK-MEL-28
SK-MEL-2 = system: SK-MEL-2
SK-MEL-5 = system: SK-MEL-5
SK-OV-3 = system: SK-OV-3
SN12C = system: SN12C
SNB-19 = system: SNB-19
SNB-75 = system: SNB-75
SNB-78 = system: SNB-78
SW-620 = system: SW-620
TK-10 = system: TK-10
U-251 = system: U-251
UACC-257 = system: UACC-257
UACC-62 = system: UACC-62
UO-31 = system: UO-31
RPMI-8226 = system: RPMI-8226
SR = system: SR

SMILES: Cc1ccccc1-n1c(C)nc(-c2ccccc2)cc1=O
- GI50 (786-0): > 100 µM (inactive)
- GI50 (A498): > 100 µM (inactive)
- GI50 (A549): > 100 µM (inactive)
- GI50 (ACHN): > 100 µM (inactive)
- GI50 (CAKI-1): > 100 µM (inactive)
- GI50 (CCRF-CEM): > 100 µM (inactive)
- GI50 (COLO 205): > 100 µM (inactive)
- GI50 (DLD-1): > 100 µM (inactive)
- GI50 (DMS-114): > 100 µM (inactive)
- GI50 (DMS-273): > 100 µM (inactive)
- GI50 (EKVX): > 100 µM (inactive)
- GI50 (HCC 2998): > 100 µM (inactive)
- GI50 (HCT-116): > 100 µM (inactive)
- GI50 (HCT-15): > 100 µM
- GI50 (HL-60): > 100 µM (inactive)
- GI50 (HOP-18): > 100 µM (inactive)
- GI50 (HOP-62): > 100 µM (inactive)
- GI50 (HOP-92): > 100 µM (inactive)
- GI50 (HT-29): > 100 µM (inactive)
- GI50 (IGROV-1): > 100 µM (inactive)
- GI50 (K562): > 100 µM (inactive)
- GI50 (KM-20L2): > 100 µM (inactive)
- GI50 (KM12): > 100 µM (inactive)
- GI50 (LOX IMVI): > 100 µM (inactive)
- GI50 (LXFL 529): > 100 µM (inactive)
- GI50 (M14): > 100 µM (inactive)
- GI50 (M19-MEL): > 100 µM (inactive)
- GI50 (MOLT-4): > 100 µM (inactive)
- GI50 (Malme-3M): > 100 µM (inactive)
- GI50 (NCI-H226): > 100 µM (inactive)
- GI50 (NCI-H23): > 100 µM (inactive)
- GI50 (NCI-H460): > 100 µM (inactive)
- GI50 (NCI-H522): > 100 µM (inactive)
- GI50 (OVCAR-3): > 100 µM (inactive)
- GI50 (OVCAR-4): > 100 µM (inactive)
- GI50 (OVCAR-5): > 100 µM (inactive)
- GI50 (OVCAR-8): > 100 µM (inactive)
- GI50 (RXF 393): > 100 µM (inactive)
- GI50 (RXF 631): > 100 µM (inactive)
- GI50 (SF-268): > 100 µM (inactive)
- GI50 (SF-295): > 100 µM (inactive)
- GI50 (SF-539): > 100 µM (inactive)
- GI50 (SK-MEL-28): > 100 µM (inactive)
- GI50 (SK-MEL-2): > 100 µM (inactive)
- GI50 (SK-MEL-5): > 100 µM (inactive)
- GI50 (SK-OV-3): > 100 µM (inactive)
- GI50 (SN12C): > 100 µM (inactive)
- GI50 (SNB-19): > 100 µM (inactive)
- GI50 (SNB-75): 37.7 µM (inactive)
- GI50 (SNB-78): > 100 µM (inactive)
- GI50 (SW-620): > 100 µM (inactive)
- GI50 (TK-10): > 100 µM (inactive)
- GI50 (U-251): > 100 µM (inactive)
- GI50 (UACC-257): > 100 µM (inactive)
- GI50 (UACC-62): > 100 µM (inactive)
- GI50 (UO-31): > 100 µM (inactive)

SMILES: COc1cc(C2[C@H]3C(=O)N(c4ccc(Cc5ccc(N6C(=O)[C@@H]7ON(c8ccccc8)C(c8cc(OC)c(OC)c(OC)c8)[C@@H]7C6=O)cc5)cc4)C(=O)[C@H]3ON2c2ccccc2)cc(OC)c1OC (some centres not stated)
- GI50 (786-0): > 100 µM (inactive)
- GI50 (A498): > 100 µM (inactive)
- GI50 (A549): > 100 µM (inactive)
- GI50 (ACHN): > 100 µM (inactive)
- GI50 (CAKI-1): > 100 µM (inactive)
- GI50 (CCRF-CEM): > 100 µM (inactive)
- GI50 (COLO 205): > 100 µM (inactive)
- GI50 (DLD-1): > 100 µM (inactive)
- GI50 (DMS-114): > 100 µM (inactive)
- GI50 (DMS-273): > 100 µM (inactive)
- GI50 (EKVX): > 100 µM (inactive)
- GI50 (HCC 2998): > 100 µM (inactive)
- GI50 (HCT-116): > 100 µM (inactive)
- GI50 (HCT-15): > 100 µM
- GI50 (HL-60): > 100 µM (inactive)
- GI50 (HOP-18): > 100 µM (inactive)
- GI50 (HOP-62): > 100 µM (inactive)
- GI50 (HT-29): > 100 µM (inactive)
- GI50 (IGROV-1): > 100 µM (inactive)
- GI50 (K562): > 100 µM (inactive)
- GI50 (KM-20L2): > 100 µM (inactive)
- GI50 (KM12): > 100 µM (inactive)
- GI50 (LOX IMVI): > 100 µM (inactive)
- GI50 (M14): 17 µM (inactive)
- GI50 (M19-MEL): > 100 µM (inactive)
- GI50 (MOLT-4): > 100 µM (inactive)
- GI50 (Malme-3M): 46.3 µM (inactive)
- GI50 (NCI-H226): > 100 µM (inactive)
- GI50 (NCI-H23): > 100 µM (inactive)
- GI50 (NCI-H460): > 100 µM (inactive)
- GI50 (NCI-H522): > 100 µM (inactive)
- GI50 (OVCAR-3): > 100 µM (inactive)
- GI50 (OVCAR-4): > 100 µM (inactive)
- GI50 (OVCAR-5): > 100 µM (inactive)
- GI50 (OVCAR-8): > 100 µM (inactive)
- GI50 (RPMI-8226): > 100 µM (inactive)
- GI50 (RXF 393): > 100 µM (inactive)
- GI50 (RXF 631): > 100 µM (inactive)
- GI50 (SF-268): > 100 µM (inactive)
- GI50 (SF-295): > 100 µM (inactive)
- GI50 (SF-539): > 100 µM (inactive)
- GI50 (SK-MEL-28): > 100 µM (inactive)
- GI50 (SK-MEL-2): > 100 µM (inactive)
- GI50 (SK-MEL-5): 38.5 µM (inactive)
- GI50 (SK-OV-3): > 100 µM (inactive)
- GI50 (SN12C): > 100 µM (inactive)
- GI50 (SNB-19): > 100 µM (inactive)
- GI50 (SNB-75): > 100 µM (inactive)
- GI50 (SNB-78): > 100 µM (inactive)
- GI50 (SR): > 100 µM (inactive)
- GI50 (SW-620): > 100 µM (inactive)
- GI50 (TK-10): > 100 µM (inactive)
- GI50 (U-251): > 100 µM (inactive)
- GI50 (UACC-257): > 100 µM (inactive)
- GI50 (UACC-62): 95.3 µM (inactive)
- GI50 (UO-31): > 100 µM (inactive)

Reference: ChEMBL document CHEMBL1201862, “PubChem BioAssay data set” (2004)
